The values that follow come from publication PMC5522529, “Mechanisms of Paradoxical Activation of AMPK by the Kinase Inhibitors SU6656 and Sorafenib” (Cell Chemical Biology, 2017).

Type in all cases: cell-based
One assay deals with T1, AMPK-α1 (WT) (Homo sapiens, UniProt Q13131).
T1 construct: we expressed FLAG-tagged full-length AMPK-α1 either as the WT or the AT mutant; expressed in transfected cells; host or cells: HEK293
As to the kind of experiment: AMPK activity of FLAG-tagged AMPK-α1 (WT) expressed in HEK293 cells. The following applies: WT FLAG-α1; A769662 300 μM, berberine 300 μM, phenformin 10 mM, troglitazone 100 μM, oligomycin 1 μM, SU6656 100 μM, 1 hr. The text has this:
(§1) (B) Western blotting of the same preparations as in (A). […] (D) Allosteric activation of WT and mutant α1β1γ1 complexes by MT 63-78, curve fitting as for (C). […] (E) Allosteric activation of WT and mutant α1β1γ1 complexes by AMP. Data were fitted to the equation for activation/inactivation by AMP ([Gowans et al., 2013]). […] (F) Activation of WT and AA mutant by various AMPK activators in HEK293 cells. […] FLAG-tagged complexes were isolated by immunoprecipitation and AMPK activity determined (mean ± SEM, n = 2).
(§2) We next expressed the FLAG-tagged WT or AA mutant of AMPK-α1 by transient transfection in HEK293 cells, treated with various agents, and measured AMPK activity in anti-FLAG immunoprecipitates. In Figure 4F, the results are expressed as absolute activities and are accompanied by blots showing Thr172 phosphorylation.
The α1-KD was precipitated using anti-FLAG and endogenous AMPK complexes using anti-α1 antibody, and activity determined. […] (B) Western blots (n = 2) using the indicated antibodies; samples from experiment in (A). (C) DNAs encoding FLAG-tagged AMPK-α1 (WT or AT mutant) were expressed by transient transfection in HEK293 cells, the cells treated with increasing concentrations of SU6656 for 1 hr, AMPK complexes precipitated with anti-FLAG, and activity measured.

A further assay deals with T2, AMPK-α1 AA mutant (Homo sapiens, UniProt Q13131, K40A/K42A).
T2 construct: Plasmid encoding full-length human AMPK-α1; expressed in transfected cells; host or cells: HEK293
Put plainly: AMPK activity of FLAG-tagged AMPK-α1 K40A/K42A (AA) mutant expressed in HEK293 cells. The following applies: AA mutant FLAG-α1; same concentrations, 1 hr.
Description: as §1, §2

The target of assay [1] is T3, endogenous full-length α1 complexes (Homo sapiens, UniProt Q13131).
T3 construct: endogenous in cells
Put plainly: Activity of endogenous full-length α1 complexes in HEK293 cells. The following applies: 1 hr. The text has this:
(§3) We next expressed an FLAG-tagged α1 kinase domain (α1-KD, residues 1–312) by transient transfection in HEK293 cells, treated the cells with various AMPK activators, and then assayed both the expressed α1-KD (precipitated using anti-FLAG) and endogenous full-length α1 complexes (precipitated using anti-α1 antibodies recognizing an epitope outside the α1-KD). […] This was also observed with A23187, as expected since this ionophore increases intracellular Ca^2+ and activates the alternate upstream kinase CaMKK2.
(§4) The α1-KD was precipitated using anti-FLAG and endogenous AMPK complexes using anti-α1 antibody, and activity determined. Results (mean ± SD, n = 2) are expressed relative to activities in DMSO controls. (B) Western blots (n = 2) using the indicated antibodies; samples from experiment in (A). (C) DNAs encoding FLAG-tagged AMPK-α1 (WT or AT mutant) were expressed by transient transfection in HEK293 cells, the cells treated with increasing concentrations of SU6656 for 1 hr, AMPK complexes precipitated with anti-FLAG, and activity measured. Results (mean ± SD, n = 3) are expressed relative to the DMSO control. […] Results (mean ± SD, n = 3) are expressed relative to the DMSO control. **p < 0.01, ***p < 0.001, ****p < 0.0001, ^†††p < 0.001; ns, not significant.

The target of assay [2] is T4, α1 kinase domain (α1-KD, residues 1–312) (Homo sapiens, UniProt Q13131).
T4 construct: amplifying residues 1-312 with an N-terminal FLAG-tag; expressed in transfected cells; host or cells: HEK293 (transient transfection, pcDNA5 FRT)
Put plainly: Activity of FLAG-tagged α1 kinase domain expressed in HEK293 cells. The following applies: 1 hr.
Description: as §3, §4
A plasmid encoding the AMPK-α2 kinase domain (α2-KD) was made by amplifying residues 1-310 with 5' BamH1 and 3' Xho1 sites, the resulting PCR product was cloned into pGEX6P2. Point mutations were generated using the Quikchange II site-directed mutagenesis kit (Stratagene) and confirmed by DNA sequencing.

Molecules are shown by their SMILES.

T2 sequence (Q13131 whole entry K40A/K42A): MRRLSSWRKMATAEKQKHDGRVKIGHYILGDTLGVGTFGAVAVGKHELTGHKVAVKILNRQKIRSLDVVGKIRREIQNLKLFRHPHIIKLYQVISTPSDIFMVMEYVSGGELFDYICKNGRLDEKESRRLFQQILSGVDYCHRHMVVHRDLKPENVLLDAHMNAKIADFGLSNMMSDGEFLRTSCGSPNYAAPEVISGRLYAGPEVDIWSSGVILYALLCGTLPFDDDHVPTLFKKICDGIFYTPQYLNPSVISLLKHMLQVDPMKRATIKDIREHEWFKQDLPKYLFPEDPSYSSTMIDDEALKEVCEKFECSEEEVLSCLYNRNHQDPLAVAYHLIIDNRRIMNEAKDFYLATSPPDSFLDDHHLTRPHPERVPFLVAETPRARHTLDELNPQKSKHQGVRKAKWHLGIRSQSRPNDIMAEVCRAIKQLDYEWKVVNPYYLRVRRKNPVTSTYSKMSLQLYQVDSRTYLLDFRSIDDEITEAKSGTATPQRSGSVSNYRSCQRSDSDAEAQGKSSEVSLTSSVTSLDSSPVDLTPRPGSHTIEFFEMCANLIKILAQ
T2 sequence (P54619 whole entry partner): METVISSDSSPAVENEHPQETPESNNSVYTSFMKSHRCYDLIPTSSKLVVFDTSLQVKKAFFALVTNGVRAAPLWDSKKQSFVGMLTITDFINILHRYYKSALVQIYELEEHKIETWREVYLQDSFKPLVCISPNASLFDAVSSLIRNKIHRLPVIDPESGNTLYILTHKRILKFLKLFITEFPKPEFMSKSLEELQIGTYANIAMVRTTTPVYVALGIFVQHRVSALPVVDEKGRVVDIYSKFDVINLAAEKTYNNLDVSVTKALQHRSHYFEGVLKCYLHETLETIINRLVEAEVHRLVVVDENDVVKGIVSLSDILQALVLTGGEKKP
T1 sequence (Q13131 whole entry): as the sequence (Q13131 whole entry K40A/K42A) above, with A40K, A42K counted along it
T1 sequence (P54619 whole entry partner): as the sequence (P54619 whole entry partner) above
T4 sequence (Q13131 1-312): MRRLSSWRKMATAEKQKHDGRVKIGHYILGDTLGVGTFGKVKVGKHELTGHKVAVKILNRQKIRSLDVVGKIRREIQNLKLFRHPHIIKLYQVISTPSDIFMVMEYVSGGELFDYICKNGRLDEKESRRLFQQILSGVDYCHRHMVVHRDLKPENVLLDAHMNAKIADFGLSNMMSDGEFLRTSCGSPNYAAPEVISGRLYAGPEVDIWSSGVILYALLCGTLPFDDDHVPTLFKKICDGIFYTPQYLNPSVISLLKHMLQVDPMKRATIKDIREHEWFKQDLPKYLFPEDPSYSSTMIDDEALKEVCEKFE
T3 sequence (Q13131 whole entry): as the sequence (Q13131 whole entry K40A/K42A) above, with A40K, A42K counted along it
T3 sequence (P54619 whole entry partner): as the sequence (P54619 whole entry partner) above

Take `CC[C@H]1/C=C/C=C/C[C@@H](C)[C@H](O)[C@@](C)(O)C(=O)[C@@H](C)[C@H](O)[C@@H](C)C(=O)[C@@H](C)[C@H](O)[C@@H](C)/C=C/C(=O)O[C@@H]2[C@H](C)[C@H](CC1)O[C@]1(CC[C@H](C)[C@H](C[C@@H](C)O)O1)[C@H]2C` [oligomycin]: the “AMPK activity and Thr172 phosphorylation” value at AMPK-α1 (WT) is “activated AMPK and caused Thr172 phosphorylation”. Also, the “effect of AA mutation on AMPK activation” value at AMPK-α1 AA mutant is “abolished”.

For the compound `Cc1c(C)c2c(c(C)c1O)CCC(C)(COc1ccc(CC3SC(=O)NC3=O)cc1)O2` (stereo not drawn) [troglitazone], the results for the “kinase activity / Thr172 phosphorylation” value in assay [1] and in assay [2] were “doing this with the endogenous complexes” and “failed to activate or cause Thr172 phosphorylation”, respectively. Also, at AMPK-α1 (WT), the “AMPK activity and Thr172 phosphorylation” value is “activated AMPK and caused Thr172 phosphorylation”. For the same compound, the “effect of AA mutation on AMPK activation” value at AMPK-α1 AA mutant is reported as “abolished”.
